According to patent US20090215778A1, “Alpha-substituted Arylmethyl Piperazine Pyrazolo [1,5-alpha]Pyrimidine Amide Derivatives” (priority 2007, published 2009):

Legend:
[1] = biological target: T1, HIV Env six-helix bundle (6HB) structure (Human immunodeficiency virus type 1 group M subtype B, UniProt P04579); assay: Six-helix bundle (6HB) assay; format: cell-based, HIV-1 (strain RF)
T1 construct: H9 cells chronically infected with HIV-1 (H9/HIV-1RF); endogenous in cells; host or cells: H9 cells chronically infected with HIV-1 strain RF (Env is made from the virus in the infected cells, not by transfection)
How it was run: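 Chronically HIV-1 RF-infected H9 cells (12-40 days post-infection), 2.5×10^5 per well, were preincubated with compound for 30 min at 37 °C. sCD4 at 1 μg/mL was added for 1 h to trigger Env changes. 6HB-specific rabbit serum (1 h, 37 °C) was then added, followed by PE anti-rabbit (45 min, 4 °C), with flow cytometric fluorescence read-out.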

[2] = tested on: HIV-1, NL4-3 strain; assay: Virus infection assay (virus entry and single-cycle infection); format: cell-based; conditions: Human immunodeficiency virus 1, NL43, TZM-b1, read-out: Nl4
How it was run: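 TZM-b1 cells (CD4, CXCR4, CCR5; LTR-driven lacZ/luciferase reporters) were infected with HIV-1 NL4-3 (MOI 0.01) with 80 μg/mL DEAE-dextran in the presence of test compound, 4 h at 37 °C before adding complete medium. Infection was quantified one day post-infection as chemiluminescent β-galactosidase signal.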

T1 sequence (P04579 32-519): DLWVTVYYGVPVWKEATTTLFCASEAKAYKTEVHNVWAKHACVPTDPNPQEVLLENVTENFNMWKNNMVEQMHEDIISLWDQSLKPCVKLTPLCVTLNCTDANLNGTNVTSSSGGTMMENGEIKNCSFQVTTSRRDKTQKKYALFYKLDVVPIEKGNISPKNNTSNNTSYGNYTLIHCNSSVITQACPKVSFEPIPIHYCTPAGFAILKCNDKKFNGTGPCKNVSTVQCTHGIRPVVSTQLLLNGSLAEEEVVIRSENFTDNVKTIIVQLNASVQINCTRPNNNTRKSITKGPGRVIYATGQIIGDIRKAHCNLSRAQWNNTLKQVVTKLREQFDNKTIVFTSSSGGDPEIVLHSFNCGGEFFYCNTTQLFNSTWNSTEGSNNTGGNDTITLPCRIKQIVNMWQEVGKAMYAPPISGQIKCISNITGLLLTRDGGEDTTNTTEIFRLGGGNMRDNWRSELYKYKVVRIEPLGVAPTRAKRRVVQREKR
T1 sequence (P04579 520-865): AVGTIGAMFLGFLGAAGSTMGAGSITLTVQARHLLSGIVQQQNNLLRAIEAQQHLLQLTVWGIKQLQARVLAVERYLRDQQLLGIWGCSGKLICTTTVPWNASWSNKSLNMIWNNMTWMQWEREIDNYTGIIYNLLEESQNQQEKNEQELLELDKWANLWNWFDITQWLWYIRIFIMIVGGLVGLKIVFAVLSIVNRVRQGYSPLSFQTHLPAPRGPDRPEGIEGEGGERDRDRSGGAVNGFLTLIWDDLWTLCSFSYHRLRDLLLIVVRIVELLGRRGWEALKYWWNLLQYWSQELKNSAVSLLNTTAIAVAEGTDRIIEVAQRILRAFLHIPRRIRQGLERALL

SMILES	IC50 [1] [nM]	IC50 [2] [nM]
COc1ccc(-c2nc3c(C(=O)N4CCN([C@H](CO)c5cscc5C)C[C@H]4C)cnn3c(C(F)(F)F)c2C)cc1 [methanone, [(2R)-4-[(1S)-2-hydroxy-1-(4-methyl-3-thienyl)ethyl]-2-methyl-1-piperazinyl][5-(4-methoxyphenyl)-6-methyl-7-(trifluoromethyl)pyrazolo[1,5-α]pyrimidin-3-yl]-]	< 1000	< 1000
COc1ccc(-c2nc3c(C(=O)N4CCN([C@@H](CO)c5ccc(C)s5)C[C@H]4C)cnn3c(C(F)(F)F)c2C)cc1 [methanone, [(2R)-4-[(1S)-2-hydroxy-1-(5-methyl-2-thienyl)ethyl]-2-methyl-1-piperazinyl][5-(4-methoxyphenyl)-6-methyl-7-(trifluoromethyl)pyrazolo[1,5-α]pyrimidin-3-yl]-]	< 1000	< 1000
COc1ccc(-c2nc3c(C(=O)N4CCN([C@H](CO)c5ccccc5)C[C@H]4C)cnn3c(C(F)(F)F)c2C)cc1 [methanone, [(2R)-4-[(1S)-2-hydroxy-1-phenylethyl]-2-methyl-1-piperazinyl][5-(4-methoxyphenyl)-6-methyl-7-(trifluoromethyl)pyrazolo[1,5-α]pyrimidin-3-yl]-]	< 1000	< 1000
COc1ccc(-c2nc3c(C(=O)N4CCN(C(CO)c5ccccc5NC(=O)C(C)C)C[C@H]4C)cnn3c(C(F)(F)F)c2C)cc1 (stereo partly drawn) [propanamide, N-[2-[2-hydroxy-1-[(3R)-4-[[5-(4-methoxyphenyl)-6-methyl-7-(trifluoromethyl)pyrazolo[1,5-α]pyrimidin-3-yl]carbonyl]-3-methyl-1-piperazinyl]ethyl]phenyl]-2-methyl-]	> 10100	> 10100
COc1ccc(-c2nc3c(C(=O)N4CCN(C(CO)c5cccc(NC(=O)C(C)C)c5)C[C@H]4C)cnn3c(C(F)(F)F)c2C)cc1 (stereo partly drawn) [propanamide, N-[3-[2-hydroxy-1-[(3R)-4-[[5-(4-methoxyphenyl)-6-methyl-7-(trifluoromethyl)pyrazolo[1,5-α]pyrimidin-3-yl]carbonyl]-3-methyl-1-piperazinyl]ethyl]phenyl]-2-methyl-]	< 1000	1100 to 10000
COc1ccc(-c2nc3c(C(=O)N4CCN(C(CO)c5ccccc5NC(N)=O)C[C@H]4C)cnn3c(C(F)(F)F)c2C)cc1 (stereo partly drawn) [urea, N-[2-[2-hydroxy-1-[(3R)-4-[[5-(4-methoxyphenyl)-6-methyl-7-(trifluoromethyl)pyrazolo[1,5-α]pyrimidin-3-yl]carbonyl]-3-methyl-1-piperazinyl]ethyl]phenyl]-]	> 10100	> 10100
COc1ccc(-c2nc3c(C(=O)N4CCN(C(CO)c5cccc(NC(N)=O)c5)C[C@H]4C)cnn3c(C(F)(F)F)c2C)cc1 (stereo partly drawn) [urea, N-[3-[2-hydroxy-1-[(3R)-4-[[5-(4-methoxyphenyl)-6-methyl-7-(trifluoromethyl)pyrazolo[1,5-α]pyrimidin-3-yl]carbonyl]-3-methyl-1-piperazinyl]ethyl]phenyl]-]	< 1000	1100 to 10000
COc1ccc(-c2nc3c(C(=O)N4CCN([C@@H](C)c5cccc(NC(N)=O)c5)C[C@H]4C)cnn3c(C(F)(F)F)c2C)cc1 [urea, N-[3-[(1S)-1-[(3R)-4-[[5-(4-methoxyphenyl)-6-methyl-7-(trifluoromethyl)pyrazolo[1,5-α]pyrimidin-3-yl]carbonyl]-3-methyl-1-piperazinyl]ethyl]phenyl]-]	< 1000	< 1000
COc1ccc(-c2nc3c(C(=O)N4CCN([C@@H](C)c5ccc(NC(N)=O)cc5)C[C@H]4C)cnn3c(C(F)(F)F)c2C)cc1 [urea, N-[4-[(1)-1-[(3R)-4-[[5-(4-methoxyphenyl)-6-methyl-7-(trifluoromethyl)pyrazolo[1,5-α]pyrimidin-3-yl]carbonyl]-3-methyl-1-piperazinyl]ethyl]phenyl]-]	1100 to 10000	< 1000
